Laboratory results published in US20230391845A1, “GLP-1, GIP AND GLUCAGON RECEPTOR TRIPLE AGONISTS” (priority 2020, published 2023).
pEC50: −log10 of the molar value. Read-outs that look alike come from different tables or passages of the source. *1 amine or outer side, *2 acyl side, *3 side chain or, on linkers, in order; H or OH if unused. Where a SMILES comes first, the peptide text is derived from it. Side-chain parts run from the residue outwards. [ ]: non-standard residue; d: D form. The star is where a group is joined. C20 diacid = O=C(O)CCCCCCCCCCCCCCCCCCC(=O)*; C18 diacid = O=C(O)CCCCCCCCCCCCCCCCC(=O)*; γGlu = O=C(O)[C@H](CCC(=O)[*:2])N[*:1]; εLys = N[C@@H](CCCCN[*:1])C(=O)[*:2]; Palmitoyl = CCCCCCCCCCCCCCCC(=O)*; AEEA = NCCOCCOCC(=O)O; Aib = CC(C)(N)C(=O)O

How the values were obtained:
human GIP receptor = target: T1, human GIP receptor (Homo sapiens, UniProt P48546); test: In vitro functional potency (CRE luciferase; whole cells), human GIPR; type: cell-based; conditions: BHK CRE luc2P hGIPR whole cells, read-out: hGIPR CRE Luc EC50
T1 construct: expressed in transfected cells; host or cells: BHK cells (parent line BHKTS13) containing CRE luciferase
T1 sequence (P48546 22-466): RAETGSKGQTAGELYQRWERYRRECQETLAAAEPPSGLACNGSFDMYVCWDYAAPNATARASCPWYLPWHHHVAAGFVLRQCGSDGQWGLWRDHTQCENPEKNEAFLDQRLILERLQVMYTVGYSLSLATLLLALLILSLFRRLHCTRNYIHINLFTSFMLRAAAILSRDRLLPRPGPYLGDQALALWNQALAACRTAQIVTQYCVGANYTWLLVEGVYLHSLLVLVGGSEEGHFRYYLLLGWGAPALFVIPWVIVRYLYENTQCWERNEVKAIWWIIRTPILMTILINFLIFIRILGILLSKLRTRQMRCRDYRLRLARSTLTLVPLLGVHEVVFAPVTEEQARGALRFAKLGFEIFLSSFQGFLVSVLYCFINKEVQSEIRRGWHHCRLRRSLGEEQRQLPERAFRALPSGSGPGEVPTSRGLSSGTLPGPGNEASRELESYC
Experimental: (§1) The purpose of this example is to test the functional activity, or potency, of the compounds in vitro at the human and mouse GLP-1, GIP, and Gcg receptors. The in vitro functional potency is the measure of target receptor activation in a whole cell assay.
(§2) In vitro functional potency was determined by measuring the response of the target receptor in a reporter gene assay in individual cell lines. The assay was performed in stably transfected BHK cell lines that expresses one of the following G-protein coupled receptors: human GLP-1 receptor, human GIP receptor, human Gcg receptor, mouse GLP-1 receptor, mouse GIP receptor, or mouse Gcg receptor; and where each cell line contains the DNA for the cAMP response element (CRE) coupled to a promoter and the gene for firefly luciferase (CRE luciferase). When the respective receptor is activated, it results in the production of cAMP, which in turn results in expression of the luciferase protein. When assay incubation is completed, luciferase substrate (luciferin) is added resulting in the enzymatic conversion of luciferin to oxyluciferin and producing bioluminescence. The luminescence is measured as the readout for the assay.
(§3) The cells lines used in these assays were BHK cells with BHKTS13 as a parent cell line. The cell lines were derived from a clone containing the CRE luciferase element and were established by further transfection with the respective receptor to obtain the relevant cell line.
(§4) The cells were cultured at 37° C. with 5% CO2 in Cell Culture Medium. They were aliquoted and stored in liquid nitrogen. The cells were kept in continuous culture and were seeded out the day before each assay.
(§5) GLP-1R and GcgR Cell Culture Medium consisted of DMEM medium with 10% FBS, 500 µg/mL G418, and 300 µg/mL hygromycin. GIPR Cell Culture Medium consisted of DMEM medium with 10% FBS, 400 µg/mL G418, and 300 µg/mL hygromycin. Assay Buffer consisted of DMEM w/o phenol red, 10 mM Hepes, 1× Glutamax, 1% ovalbumin, and 0.1% Pluronic F-68.
(§6) • 1) Cells were plated at 5000 cells/well and incubated overnight in the assay plate. • 2) Cells were washed once in DPBS. • 3) Stocks of the test compounds and reference compounds in concentrations ranging from 100-300 pM were diluted 1:150 in Assay Buffer.
(§7) The data from the microtiter plate reader was first regressed in an Excel in order to calculate the x-axis, log scale concentrations based on the individual test compound's stock concentration and the dilutions of the assay. […] The software performs a non-linear regression (log(agonist) vs response). A minimum of two replicates was measured for each sample. The reported values are averages of the replicates.

human GLP-1 receptor = target: T2, human GLP-1 receptor (Homo sapiens, UniProt P43220); test: In vitro functional potency (CRE luciferase; whole cells), human GLP-1R; type: cell-based; conditions: BHK CRE luc2P hGLP-1R whole cells; Table 2; read-out: hGLP-1R CRE Luc EC50
T2 construct: expressed in transfected cells; host or cells: BHK cells (parent line BHKTS13) containing CRE luciferase
T2 sequence (P43220 24-463): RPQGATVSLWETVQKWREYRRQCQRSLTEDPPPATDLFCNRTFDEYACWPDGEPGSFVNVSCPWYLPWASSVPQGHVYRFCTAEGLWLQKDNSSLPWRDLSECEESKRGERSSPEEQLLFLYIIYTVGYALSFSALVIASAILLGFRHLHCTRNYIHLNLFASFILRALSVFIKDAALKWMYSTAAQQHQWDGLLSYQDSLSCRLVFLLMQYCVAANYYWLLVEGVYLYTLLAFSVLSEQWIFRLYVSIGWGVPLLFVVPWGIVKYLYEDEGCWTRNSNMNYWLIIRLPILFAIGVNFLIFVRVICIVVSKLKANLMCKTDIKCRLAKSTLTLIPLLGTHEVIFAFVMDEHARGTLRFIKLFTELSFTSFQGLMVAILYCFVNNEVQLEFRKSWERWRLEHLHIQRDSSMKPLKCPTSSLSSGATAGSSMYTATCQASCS
Experimental: as §1, §2, §3, §4, §5, §6, §7

| Compound | pEC50 (human GIP receptor; Table 2) | pEC50 (human GLP-1 receptor) | pEC50 (human GIP receptor; Table 1, position of substituent varied) |
| --- | --- | --- | --- |
| CC[C@H](C)[C@H](NC(=O)[C@H](CO)NC(=O)[C@H](Cc1ccc(O)cc1)NC(=O)[C@H](CC(=O)O)NC(=O)[C@H](CO)NC(=O)[C@@H](NC(=O)[C@H](Cc1ccccc1)NC(=O)[C@@H](NC(=O)CNC(=O)[C@H](CCC(N)=O)NC(=O)C(C)(C)NC(=O)[C@@H](N)Cc1ccc(O)cc1)[C@@H](C)O)[C@@H](C)O)C(=O)N[C@@H](Cc1ccc(O)cc1)C(=O)N[C@@H](CC(C)C)C(=O)N[C@@H](CCC(=O)O)C(=O)N[C@@H](CCCCNC(=O)COCCOCCNC(=O)COCCOCCNC(=O)CC[C@H](NC(=O)CCCCCCCCCCCCCCCCCCC(=O)O)C(=O)O)C(=O)N[C@@H](CCC(N)=O)C(=O)N[C@@H](C)C(=O)N[C@@H](C)C(=O)NC(C)(C)C(=O)N[C@@H](CCC(=O)O)C(=O)N[C@@H](Cc1ccccc1)C(=O)N[C@H](C(=O)N[C@@H](CC(N)=O)C(=O)N[C@@H](Cc1c[nH]c2ccccc12)C(=O)N[C@@H](CC(C)C)C(=O)N[C@@H](CC(C)C)C(=O)N[C@@H](C)C(=O)NCC(=O)NCC(=O)N1CCC[C@H]1C(=O)N[C@@H](CO)C(=O)N[C@@H](CO)C(=O)NCC(=O)N[C@@H](C)C(=O)N1CCC[C@H]1C(=O)N1CCC[C@H]1C(=O)N1CCC[C@H]1C(=O)N[C@@H](CO)C(N)=O)C(C)C [Compound No. 15] (H-Y[Aib]QGTFTSDYSIYLEK([AEEA-AEEA-γGlu-C20 diacid])QAA[Aib]EFVNWLLAGGPSSGAPPPS-NH2) | 11.32 | 11.85 |  |
| CC[C@H](C)[C@H](NC(=O)[C@H](CO)NC(=O)[C@H](Cc1ccc(O)cc1)NC(=O)[C@H](CC(=O)O)NC(=O)[C@H](CO)NC(=O)[C@@H](NC(=O)[C@H](Cc1ccccc1)NC(=O)[C@@H](NC(=O)CNC(=O)[C@H](Cc1c[nH]cn1)NC(=O)C(C)(C)NC(=O)[C@@H](N)Cc1c[nH]cn1)[C@@H](C)O)[C@@H](C)O)C(=O)N[C@@H](Cc1ccc(O)cc1)C(=O)N[C@@H](CC(C)C)C(=O)N[C@@H](CCC(=O)O)C(=O)N[C@@H](CCCCNC(=O)[C@@H](N)CCCCNC(=O)[C@@H](N)CCCCNC(=O)CC[C@H](NC(=O)CCCCCCCCCCCCCCCCCCC(=O)O)C(=O)O)C(=O)N[C@@H](CCC(N)=O)C(=O)N[C@@H](C)C(=O)N[C@@H](C)C(=O)NC(C)(C)C(=O)N[C@@H](CCC(=O)O)C(=O)N[C@@H](Cc1ccccc1)C(=O)N[C@H](C(=O)N[C@@H](CCC(N)=O)C(=O)N[C@@H](Cc1c[nH]c2ccccc12)C(=O)N[C@@H](CC(C)C)C(=O)N[C@@H](CC(C)C)C(=O)N[C@@H](CCC(=O)O)C(=O)NCC(=O)NCC(=O)N1CCC[C@H]1C(=O)N[C@@H](CO)C(=O)N[C@@H](CO)C(=O)NCC(=O)N[C@@H](C)C(=O)N1CCC[C@H]1C(=O)N1CCC[C@H]1C(=O)N1CCC[C@H]1C(=O)N[C@@H](CO)C(N)=O)C(C)C [Compound No. 22] (H-H[Aib]HGTFTSDYSIYLEK([εLys-εLys-γGlu-C20 diacid])QAA[Aib]EFVQWLLEGGPSSGAPPPS-NH2; N-terminus assumed) | 11.15 | 11.70 |  |
| CC(C)C[C@H](NC(=O)[C@H](CC(C)C)NC(=O)[C@H](Cc1c[nH]c2ccccc12)NC(=O)[C@H](CCC(N)=O)NC(=O)[C@@H](NC(=O)[C@H](Cc1ccccc1)NC(=O)[C@H](CCC(=O)O)NC(=O)C(C)(C)NC(=O)[C@H](C)NC(=O)[C@H](C)NC(=O)[C@H](CCC(N)=O)NC(=O)[C@H](CCCCNC(=O)[C@@H](N)CCCCNC(=O)[C@@H](N)CCCCNC(=O)CC[C@H](NC(=O)CCCCCCCCCCCCCCCCCCC(=O)O)C(=O)O)NC(=O)[C@H](CCC(=O)O)NC(=O)[C@H](CC(C)C)NC(=O)[C@H](Cc1ccc(O)cc1)NC(=O)[C@H](CCCCN)NC(=O)[C@H](CO)NC(=O)[C@H](Cc1ccc(O)cc1)NC(=O)[C@H](CC(=O)O)NC(=O)[C@H](CO)NC(=O)[C@@H](NC(=O)[C@H](Cc1ccccc1)NC(=O)[C@@H](NC(=O)CNC(=O)[C@H](Cc1c[nH]cn1)NC(=O)C(C)(C)NC(=O)[C@@H](N)Cc1c[nH]cn1)[C@@H](C)O)[C@@H](C)O)C(C)C)C(=O)N[C@@H](CCC(=O)O)C(=O)NCC(=O)NCC(=O)N1CCC[C@H]1C(=O)N[C@@H](CO)C(=O)N[C@@H](CO)C(=O)NCC(=O)N[C@@H](C)C(=O)N1CCC[C@H]1C(=O)N1CCC[C@H]1C(=O)N1CCC[C@H]1C(=O)N[C@@H](CO)C(N)=O [Compound No. 36] (H-H[Aib]HGTFTSDYSKYLEK([εLys-εLys-γGlu-C20 diacid])QAA[Aib]EFVQWLLEGGPSSGAPPPS-NH2) | 11.03 | 11.74 |  |
| CC[C@H](C)[C@H](NC(=O)[C@H](CO)NC(=O)[C@H](Cc1ccc(O)cc1)NC(=O)[C@H](CC(=O)O)NC(=O)[C@H](CO)NC(=O)[C@@H](NC(=O)[C@H](Cc1ccccc1)NC(=O)[C@@H](NC(=O)CNC(=O)[C@H](Cc1c[nH]cn1)NC(=O)C(C)(C)NC(=O)[C@@H](N)Cc1c[nH]cn1)[C@@H](C)O)[C@@H](C)O)C(=O)N[C@@H](CC(C)C)C(=O)N[C@@H](CC(C)C)C(=O)N[C@@H](CCC(=O)O)C(=O)N[C@@H](CCCCNC(=O)[C@@H](N)CCCCNC(=O)[C@@H](N)CCCCNC(=O)CC[C@H](NC(=O)CCCCCCCCCCCCCCCCC(=O)O)C(=O)O)C(=O)N[C@@H](CCC(N)=O)C(=O)N[C@@H](C)C(=O)N[C@@H](C)C(=O)N[C@@H](CCC(=O)O)C(=O)N[C@@H](CCC(=O)O)C(=O)N[C@@H](Cc1ccccc1)C(=O)N[C@H](C(=O)N[C@@H](CCC(N)=O)C(=O)N[C@@H](Cc1c[nH]c2ccccc12)C(=O)N[C@@H](CC(C)C)C(=O)N[C@@H](CC(C)C)C(=O)N[C@@H](CCC(=O)O)C(=O)NCC(=O)NCC(=O)N1CCC[C@H]1C(=O)N[C@@H](CO)C(=O)N[C@@H](CO)C(=O)NCC(=O)N[C@@H](C)C(=O)N1CCC[C@H]1C(=O)N1CCC[C@H]1C(=O)N1CCC[C@H]1C(=O)N[C@@H](CO)C(=O)O)C(C)C [Compound No. 51] (H-H[Aib]HGTFTSDYSILLEK([εLys-εLys-γGlu-C18 diacid])QAAEEFVQWLLEGGPSSGAPPPS-OH) | 11.74 |  |  |
| CC[C@H](C)[C@H](NC(=O)[C@H](CO)NC(=O)[C@H](Cc1ccc(O)cc1)NC(=O)[C@H](CC(=O)O)NC(=O)[C@H](CO)NC(=O)[C@@H](NC(=O)[C@H](Cc1ccccc1)NC(=O)[C@@H](NC(=O)CNC(=O)[C@H](Cc1c[nH]cn1)NC(=O)C(C)(C)NC(=O)[C@@H](N)Cc1c[nH]cn1)[C@@H](C)O)[C@@H](C)O)C(=O)N[C@@H](CC(C)C)C(=O)N[C@@H](CC(C)C)C(=O)N[C@@H](CCC(=O)O)C(=O)N[C@@H](CCCCNC(=O)[C@@H](N)CCCCNC(=O)[C@@H](N)CCCCNC(=O)CC[C@H](NC(=O)CCCCCCCCCCCCCCCCCCC(=O)O)C(=O)O)C(=O)N[C@@H](CCC(N)=O)C(=O)N[C@@H](C)C(=O)N[C@@H](C)C(=O)N[C@@H](CCC(N)=O)C(=O)N[C@@H](CCC(=O)O)C(=O)N[C@@H](Cc1ccccc1)C(=O)N[C@H](C(=O)N[C@@H](CCC(N)=O)C(=O)N[C@@H](Cc1c[nH]c2ccccc12)C(=O)N[C@@H](CC(C)C)C(=O)N[C@@H](CC(C)C)C(=O)N[C@@H](CCC(=O)O)C(=O)NCC(=O)NCC(=O)N1CCC[C@H]1C(=O)N[C@@H](CO)C(=O)N[C@@H](CO)C(=O)NCC(=O)N[C@@H](C)C(=O)N1CCC[C@H]1C(=O)N1CCC[C@H]1C(=O)N1CCC[C@H]1C(=O)N[C@@H](CO)C(=O)O)C(C)C [Compound No. 53] (H-H[Aib]HGTFTSDYSILLEK([εLys-εLys-γGlu-C20 diacid])QAAQEFVQWLLEGGPSSGAPPPS-OH) | 11.32 |  |  |
| CCCCCCCCCCCCCCCC(=O)NCCCC[C@H](NC(=O)[C@H](CO)NC(=O)[C@@H]1CCCN1C(=O)[C@@H]1CCCN1C(=O)[C@@H]1CCCN1C(=O)[C@H](C)NC(=O)CNC(=O)[C@H](CO)NC(=O)[C@H](CO)NC(=O)[C@@H]1CCCN1C(=O)CNC(=O)CNC(=O)[C@H](C)NC(=O)[C@H](CC(C)C)NC(=O)[C@H](CC(C)C)NC(=O)[C@H](Cc1c[nH]c2ccccc12)NC(=O)[C@H](CC(N)=O)NC(=O)[C@@H](NC(=O)[C@H](Cc1ccccc1)NC(=O)[C@H](CCC(=O)O)NC(=O)C(C)(C)NC(=O)[C@H](C)NC(=O)[C@H](C)NC(=O)[C@H](CCC(N)=O)NC(=O)[C@H](CCCCN)NC(=O)[C@H](CC(=O)O)NC(=O)[C@H](CC(C)C)NC(=O)[C@H](Cc1ccc(O)cc1)NC(=O)[C@@H](NC(=O)[C@H](CO)NC(=O)[C@H](Cc1ccc(O)cc1)NC(=O)[C@H](CC(=O)O)NC(=O)[C@H](CO)NC(=O)[C@@H](NC(=O)[C@H](Cc1ccccc1)NC(=O)[C@@H](NC(=O)CNC(=O)[C@H](CCC(N)=O)NC(=O)C(C)(C)NC(=O)[C@@H](N)Cc1ccc(O)cc1)[C@@H](C)O)[C@@H](C)O)[C@@H](C)CC)C(C)C)C(N)=O [Compound No. 58, reference compound] (H-Y[Aib]QGTFTSDYSIYLDKQAA[Aib]EFVNWLLAGGPSSGAPPPSK(Palmitoyl)-NH2; N-terminus assumed) |  |  | 11.14 |
